{"source": "PubChem BioAssay AID330", "about": "(DTP/NCI, 2004)", "tested_on": "P388 leukemia ip, CD2F1 mice, survival T/C", "assay": "NCI In Vivo Anticancer Drug Screen. Data for tumor model P388 Leukemia (intraperitoneal) in CD2F1 (CDF1) mice", "details": "endpoint: median survival time, higher = longer survival", "outline": "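Mice carrying the transplanted tumor received test compound or vehicle. Survival was recorded in each group, and the value is the treated-group measurement divided by that of the vehicle-treated control group.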", "key": {"[1]": {"details": "dose: 60.0 mg/kg/injection, schedule: Q01DX005 (ip), vehicle: saline"}, "[2]": {"details": "dose: 120.0 mg/kg/injection, schedule: Q01DX005 (ip), vehicle: saline"}, "[3]": {"details": "dose: 50.0 mg/kg/injection, schedule: Q01DX005 (ip), vehicle: saline with Tween-80"}, "[4]": {"details": "dose: 50.0 mg/kg/injection, schedule: Q01DX009 (ip), vehicle: saline"}, "[5]": {"details": "dose: 50.0 mg/kg/injection, schedule: Q01DX009 (ip), vehicle: saline with Tween-80"}, "[6]": {"details": "dose: 100.0 mg/kg/injection, schedule: Q01DX009 (ip), vehicle: saline with Tween-80"}, "[7]": {"details": "dose: 240.0 mg/kg/injection, schedule: Q01DX005 (ip), vehicle: saline"}}, "note": "Several values for one entry are separate records, joined by “and”; a condition that tells them apart may be missing. Equal entries are not always repeated. Inconclusive results and toxic doses are left out."}
{"smiles": "COC(=O)C1CC(O)CC(C(=O)OC)O1", "note": "(configuration not stated)", "values": [{"measurement": "T/C", "setting": "[1]", "value": "96 % of control"}, {"measurement": "T/C", "setting": "[2]", "value": "90 % of control"}]}
{"smiles": "N#CC1OC1c1cccnc1", "note": "(configuration not stated)", "values": [{"measurement": "T/C", "setting": "dose: 12.5 mg/kg/injection, schedule: Q01DX005 (ip), vehicle: saline with Tween-80", "value": "105 % of control and 111 % of control"}, {"measurement": "T/C", "setting": "dose: 25.0 mg/kg/injection, schedule: Q01DX005 (ip), vehicle: saline with Tween-80", "value": "105 % of control and 106 % of control"}, {"measurement": "T/C", "setting": "[3]", "value": "121 % of control"}]}
{"smiles": "c1cc2nc(N3CCNCC3)nc(N3CCOCC3)c2s1", "values": [{"measurement": "T/C", "setting": "[4]", "value": "94 % of control"}, {"measurement": "T/C", "setting": "dose: 100.0 mg/kg/injection, schedule: Q01DX009 (ip), vehicle: saline", "value": "97 % of control"}, {"measurement": "T/C", "setting": "dose: 200.0 mg/kg/injection, schedule: Q01DX009 (ip), vehicle: saline", "value": "93 % of control"}]}
{"smiles": "O=C(Nc1ccc(N=C=S)cc1Cl)c1cc(Br)cc(Br)c1O", "values": [{"measurement": "T/C", "setting": "dose: 25.0 mg/kg/injection, schedule: Q01DX001 (ip), vehicle: Klucel (hydroxypropylcellulose) (HPC)", "value": "106 % of control"}, {"measurement": "T/C", "setting": "dose: 50.0 mg/kg/injection, schedule: Q01DX001 (ip), vehicle: Klucel (hydroxypropylcellulose) (HPC)", "value": "100 % of control"}, {"measurement": "T/C", "setting": "dose: 100.0 mg/kg/injection, schedule: Q01DX001 (ip), vehicle: Klucel (hydroxypropylcellulose) (HPC)", "value": "92 % of control and 95 % of control"}]}
{"smiles": "CC(C)N(Cc1ccccc1)CC(O)c1ccc(Cl)cc1", "note": "(configuration not stated)", "values": [{"measurement": "T/C", "setting": "dose: 12.5 mg/kg/injection, schedule: Q01DX009 (ip), vehicle: saline with Tween-80", "value": "104 % of control"}, {"measurement": "T/C", "setting": "dose: 25.0 mg/kg/injection, schedule: Q01DX009 (ip), vehicle: saline with Tween-80", "value": "108 % of control"}, {"measurement": "T/C", "setting": "[5]", "value": "100 % of control and 108 % of control"}, {"measurement": "T/C", "setting": "[6]", "value": "95 % of control"}]}
{"smiles": "CS(=O)(=O)OCCOc1ccc(-c2nc3ccccc3[nH]2)cc1", "values": [{"measurement": "T/C", "setting": "dose: 100.0 mg/kg/injection, schedule: Q01DX001 (ip), vehicle: saline with Tween-80", "value": "90 % of control"}, {"measurement": "T/C", "setting": "dose: 200.0 mg/kg/injection, schedule: Q01DX001 (ip), vehicle: saline with Tween-80", "value": "98 % of control"}, {"measurement": "T/C", "setting": "dose: 400.0 mg/kg/injection, schedule: Q01DX001 (ip), vehicle: saline with Tween-80", "value": "99 % of control"}]}
{"smiles": "Cc1cccc(NC(N)=S)n1", "values": [{"measurement": "T/C", "setting": "dose: 12.5 mg/kg/injection, schedule: Q01DX009 (ip), vehicle: other", "value": "108 % of control"}, {"measurement": "T/C", "setting": "dose: 25.0 mg/kg/injection, schedule: Q01DX009 (ip), vehicle: other", "value": "98 % of control"}, {"measurement": "T/C", "setting": "dose: 50.0 mg/kg/injection, schedule: Q01DX009 (ip), vehicle: other", "value": "115 % of control"}, {"measurement": "T/C", "setting": "dose: 100.0 mg/kg/injection, schedule: Q01DX009 (ip), vehicle: other", "value": "119 % of control"}]}
{"smiles": "COc1cc(OC)c(C(=O)CCN(C)C)cc1OC", "values": [{"measurement": "T/C", "setting": "[1]", "value": "109 % of control"}, {"measurement": "T/C", "setting": "[2]", "value": "116 % of control"}, {"measurement": "T/C", "setting": "[7]", "value": "114 % of control"}]}
{"smiles": "COc1ccc(N=C(C)c2c(O)n(-c3ccccc3)[nH]c2=O)cc1", "values": [{"measurement": "T/C", "setting": "dose: 50.0 mg/kg/injection, schedule: Q01DX005 (ip), vehicle: Klucel (hydroxypropylcellulose) (HPC)", "value": "101 % of control"}, {"measurement": "T/C", "setting": "dose: 100.0 mg/kg/injection, schedule: Q01DX005 (ip), vehicle: Klucel (hydroxypropylcellulose) (HPC)", "value": "104 % of control"}, {"measurement": "T/C", "setting": "dose: 200.0 mg/kg/injection, schedule: Q01DX005 (ip), vehicle: Klucel (hydroxypropylcellulose) (HPC)", "value": "99 % of control"}]}
{"smiles": "CCN(CC)Cc1c(C)nc2ccc(N(C)C)cc2c1Cl", "values": [{"measurement": "T/C", "setting": "dose: 12.5 mg/kg/injection, schedule: Q01DX009 (ip), vehicle: Klucel (hydroxypropylcellulose) (HPC)", "value": "115 % of control"}, {"measurement": "T/C", "setting": "dose: 25.0 mg/kg/injection, schedule: Q01DX009 (ip), vehicle: Klucel (hydroxypropylcellulose) (HPC)", "value": "110 % of control"}, {"measurement": "T/C", "setting": "dose: 50.0 mg/kg/injection, schedule: Q01DX009 (ip), vehicle: Klucel (hydroxypropylcellulose) (HPC)", "value": "100 % of control and 96 % of control"}]}
{"smiles": "COc1ccc(/C=C/c2c(C(=O)O)oc3ccccc23)cc1", "values": [{"measurement": "T/C", "setting": "[5]", "value": "103 % of control"}, {"measurement": "T/C", "setting": "[6]", "value": "95 % of control"}, {"measurement": "T/C", "setting": "dose: 200.0 mg/kg/injection, schedule: Q01DX009 (ip), vehicle: saline with Tween-80", "value": "112 % of control"}]}
{"smiles": "CC(=O)c1c(O)cc(C)n(Cc2ccccc2)c1=O", "values": [{"measurement": "T/C", "setting": "[3]", "value": "99 % of control"}, {"measurement": "T/C", "setting": "dose: 100.0 mg/kg/injection, schedule: Q01DX005 (ip), vehicle: saline with Tween-80", "value": "100 % of control"}, {"measurement": "T/C", "setting": "dose: 200.0 mg/kg/injection, schedule: Q01DX005 (ip), vehicle: saline with Tween-80", "value": "99 % of control"}]}
{"smiles": "Nc1nnc2nc(CC(=O)c3ccccc3)c(CC(=O)c3ccccc3)nn12", "values": [{"measurement": "T/C", "setting": "[1]", "value": "95 % of control"}, {"measurement": "T/C", "setting": "[2]", "value": "94 % of control"}, {"measurement": "T/C", "setting": "[7]", "value": "100 % of control"}]}
{"smiles": "CC(=O)OC1C(CO)OC2C1Oc1nc(=N)c(F)cn12", "note": "(configuration not stated)", "values": [{"measurement": "T/C", "setting": "dose: 0.39 mg/kg/injection, schedule: Q01DX009 (ip), vehicle: saline with Tween-80", "value": "116 % of control"}, {"measurement": "T/C", "setting": "dose: 1.56 mg/kg/injection, schedule: Q01DX009 (ip), vehicle: saline with Tween-80", "value": "160 % of control"}, {"measurement": "T/C", "setting": "dose: 3.13 mg/kg/injection, schedule: Q01DX009 (ip), vehicle: saline with Tween-80", "value": "91 % of control"}, {"measurement": "T/C", "setting": "dose: 3.13 mg/kg/injection, schedule: Q01DX009 (ip), vehicle: saline", "value": "101 % of control"}, {"measurement": "T/C", "setting": "dose: 6.25 mg/kg/injection, schedule: Q01DX009 (ip), vehicle: saline", "value": "87 % of control and 88 % of control and 93 % of control"}, {"measurement": "T/C", "setting": "dose: 12.5 mg/kg/injection, schedule: Q01DX009 (ip), vehicle: saline", "value": "117 % of control"}, {"measurement": "T/C", "setting": "[4]", "value": "161 % of control"}]}
